Data taken from patent US6878722B2, “Substituted cycloalkyl P1′ hepatitis C virus inhibitors” (Bristol-Myers Squibb Company, priority 2002, dated 2005).

Key:
[1] = tested on: HCV replicon in Huh7 cells; experiment: HCV replicon cell-based assay (FRET); conditions: Hepatitis C virus, Huh-7; HCV replicon; read-out: EC50 range
Text: An HCV replicon whole cell system was established as described by Lohmann V, Korner F, Koch J, Herian U, Theilmann L, Bartenschlager R., Science 285(5424):110-3 (1999). This system enabled us to evaluate the effects of our HCV Protease compounds on HCV RNA replication. Briefly, using the HCV strain 1B sequence described in the Lohmann paper (Assession number: AJ238799), an HCV cDNA was generated encoding the 5′ internal ribosome entry site (IRES), the neomycin resistance gene, the EMCV (encephalomyocarditis viurs)-IRES and the HCV nonstructural proteins, NS3-NS5B, and 3′ non-translated region (NTR). In vitro transcripts of the cDNA were transfected into the human hepatoma cell line, Huh7. […] Resulting cell lines were characterized for positive and negative strand RNA production and protein production over time.
Huh7 cells, constitutively expressing the HCV replicon, were grown in Dulbecco's Modified Eagle Media (DMEM) containing 10% Fetal calf serum (FCS) and 1 mg/ml G418 (Gibco-BRL). Cells were seeded the night before (1.5×10^4 cells/well) in 96-well tissue-culture sterile plates. Compound and no compound controls were prepared in DMEM containing 4% FCS, 1:100 Penicillin/Streptomysin, 1:100 L-glutamine and 5% DMSO in the dilution plate (0.5% DMSO final concentration in the assay). Compound/DMSO mixes were added to the cells and incubated for 4 days at 37° C. After 4 days, plates were rinsed thoroughly with Phosphate-Buffered Saline (PBS) (3 times 150 μl). The cells were lysed with 25 μl of a lysis assay reagent containing the FRET peptide (RET S1, as described for the in vitro enzyme assay). The lysis assay reagent was made from 5× cell Luciferase cell culture lysis reagent(Promega #E153A) diluted to 1× with distilled water, NaCl added to 150 mM final, the FRET peptide diluted to 10 μM final from a 2 mM stock in 100% DMSO. The plate was then placed into the Cytofluor 4000 instrument which had been set to 340 nm excitation/490 emission, automatic mode for 21 cycles and the plate read in a kinetic mode. EC50 determinations were carried out as described for the IC50 determinations.

[2] = biological target: T1, HCV NS3/4A protease complex (BMS strain, genotype 1a) (Hepatitis C virus genotype 1a, UniProt P27958, C1454S); experiment: Recombinant HCV NS3/4A protease complex FRET peptide assay, BMS strain; assay type: biochemical; conditions: IC50 range, NS3/4A BMS Strain
T1 construct: DNA encoding the recombinant HCV NS3/4A protease complex (amino acids 1027 to 1711) for these strains; inferred from the pET21b vector and Ni-NTA purification; made in house; host or cells: Escherichia coli BL21 (DE3), pET21b
Text: The purpose of this in vitro assay was to measure the inhibition of HCV NS3 protease complexes, derived from the BMS, H77C or J416S strains, as described below, by compounds of the present invention.
Serum from an HCV-infected patient was obtained from Dr. T. Wright, San Francisco Hospital. An engineered full-length cDNA (compliment deoxyribonucleic acid) template of the HCV genome (BMS strain) was constructed from DNA fragments obtained by reverse transcription-PCR (RT-PCR) of serum RNA (ribonucleic acid) and using primers selected on the basis of homology between other genotype 1a strains. […] The infectious clones, H77C (1a genotype) and J4L6S (1b genotype) were obtained from R. Purcell (NIH) and the sequences are published in Genbank (AAB67036, see Yanagi,M., Purcell,R. H., Emerson,S. U. and Bukh,J. Proc. Natl. Acad. Sci. U.S.A. 94(16),8738-8743 (1997); AF054247, see Yanagi,M., St Claire,M., Shapiro,M., Emerson,S. U., Purcell,R. H. and Bukh,J, Virology 244 (1), 161-172. (1998)).
The BMS, H77C and J4L6S strains were used for production of recombinant NS3/4A protease complexes. DNA encoding the recombinant HCV NS3/4A protease complex (amino acids 1027 to 1711) for these strains were manipulated as described by P. Gallinari et al. (see Gallinari P, Paolini C, Brennan D, Nardi C, Steinkuhler C, De Francesco R. Biochemistry. 38(17):5620-32, (1999)). Briefly, a three-lysine solubilizing tail was added at the 3′-end of the NS4A coding region. The cysteine in the P1 position of the NS4A-NS4B cleavage site (amino acid 1711) was changed to a glycine to avoid the proteolytic cleavage of the lysine tag. Furthermore, a cysteine to serine mutation was introduced by PCR at amino acid position 1454 to prevent the autolytic cleavage in the NS3 helicase domain. The variant DNA fragment was cloned in the pET21b bacterial expression vector (Novagen) and the NS3/4A complex was expressed in Escherichia. coli strain BL21 (DE3) (Invitrogen) following the protocol described by P. Gallinari et al. (see Gallinari P, Brennan D, Nardi C, Brunetti M, Tomei L, Steinkuhler C, De Francesco R., J. Virol. 72(8):6758-69 (1998)) with modifications. Briefly, NS3/4A expression was induced with 0.5 mM Isopropyl β-D-1-thiogalactopyranoside (IPTG) for 22 hr at 20° C. […] The cells were resuspended in lysis buffer (10 mL/g) consisting of 25 mM N-(2-Hydroxyethyl)Piperazine-N′-(2-Ethane Sulfonic acid) (HEPES), pH 7.5, 20% glycerol, 500 mM Sodium Chloride (NaCl), 0.5% Triton-X100, 1 ug/ml lysozyme, 5 mM Magnesium Chloride (MgCl2), 1 ug/ml DnaseI, 5 mM β-Mercaptoethanol (βME), Protease inhibitor—Ethylenediamine Tetraacetic acid (EDTA) free (Roche), homogenized and incubated for 20 mins at 4° C. The homogenate was sonicated and clarified by ultra-centrifugation at 235000 g for 1 hr at 4° C. Imidazole was added to the supernatant to a final concentration of 15 mM and the pH adjusted to 8.0. The crude protein extract was loaded on a Nickel-Nitrilotriacetic acid (Ni-NTA) column pre-equilibrated with buffer B (25 mM HEPES, pH 8.0, 20% glycerol, 500 mM NaCl, 0.5% Triton-X100, 15 mM imidazole, 5 mM βME). The sample was loaded at a flow rate of 1 mL/min. The column was washed with 15 column volumes of buffer C (same as buffer B except with 0.2% Triton-X100). The protein was eluted with 5 column volumes of buffer D (same as buffer C except with 200 mM Imidazole).
NS3/4A protease complex-containing fractions were pooled and loaded on a desalting column Superdex-S200 pre-equilibrated with buffer D (25 mM HEPES, pH7.5, 20% glycerol, 300 mM NaCl, 0.2% Triton-X100, 10 mM βME).

T1 sequence (P27958 1658-1714, looked up, stated change not applied): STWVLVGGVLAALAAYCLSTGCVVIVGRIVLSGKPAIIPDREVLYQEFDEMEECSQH
T1 sequence (P27958 1027-1657, looked up, stated change not applied): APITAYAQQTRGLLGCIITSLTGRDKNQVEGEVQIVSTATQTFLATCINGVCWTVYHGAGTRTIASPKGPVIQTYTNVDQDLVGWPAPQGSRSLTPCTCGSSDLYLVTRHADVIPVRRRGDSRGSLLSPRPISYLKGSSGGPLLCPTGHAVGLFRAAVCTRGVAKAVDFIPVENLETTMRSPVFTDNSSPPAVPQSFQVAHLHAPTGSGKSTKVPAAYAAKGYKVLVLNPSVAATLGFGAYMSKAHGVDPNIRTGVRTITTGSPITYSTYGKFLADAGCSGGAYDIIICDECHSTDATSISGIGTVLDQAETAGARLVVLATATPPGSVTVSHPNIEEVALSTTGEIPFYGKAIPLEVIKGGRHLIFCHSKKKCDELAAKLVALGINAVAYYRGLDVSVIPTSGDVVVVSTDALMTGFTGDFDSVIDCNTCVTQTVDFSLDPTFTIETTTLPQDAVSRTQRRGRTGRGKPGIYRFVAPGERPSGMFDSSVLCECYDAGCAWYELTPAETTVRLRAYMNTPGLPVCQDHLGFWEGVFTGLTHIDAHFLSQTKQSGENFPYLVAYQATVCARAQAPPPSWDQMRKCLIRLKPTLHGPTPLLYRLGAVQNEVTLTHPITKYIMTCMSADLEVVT

Structure (SMILES) | EC50 [1] | IC50 [2]
C=CC1C[C@]1(NC(=O)[C@@H]1C[C@@H](Oc2cc(-c3ccccc3)nc3cc(OC)ccc23)CN1C(=O)[C@@H](NC(=O)OC(C)(C)C)C(C)(C)C)C(=O)NS(=O)(=O)C1(Br)CC1 (stereo partly drawn) [Compound 11, {1-[2-[1-(1-Bromocyclopropanesulfonylaminocarbonyl)-2-vinylcy-clopropylcarbamoyl]-4-(7-methoxy-2-phenylquinolin-4-yloxy)pyrrolidine-1-carbonyl]-2,2-dimethylpropyl}-carbamic acid tert-butyl ester] | < 50 nM | < 50 nM
C=C[C@@H]1C[C@]1(NC(=O)[C@@H]1C[C@@H](Oc2cc(-c3ccccc3)nc3cc(OC)ccc23)CN1C(=O)[C@@H](NC(=O)OC(C)(C)C)C(C)(C)C)C(=O)NS(=O)(=O)C1([Si](C)(C)C)CC1 [Compound 27] | < 50 nM | < 50 nM
C=CCC1(S(=O)(=O)NC(=O)[C@@]2(NC(=O)[C@@H]3C[C@@H](Oc4cc(-c5ccccc5)nc5cc(OC)ccc45)CN3C(=O)[C@@H](NC(=O)OC(C)(C)C)C(C)(C)C)CC2C=C)CC1 (stereo partly drawn) [Compound 2, {1-[2-[1-(1-Allylcyclopropanesul-fonylaminocarbonyl)-2-vinylcyclopropylcarbamoyl]-4-(7-methoxy-2-phenylquinolin-4-yloxy)-pyrrolidine-1-carbonyl]-2,2-dimethylpropyl}carbamic acid tert-butyl ester] | < 50 nM | < 50 nM
C=C[C@@H]1C[C@]1(NC(=O)[C@@H]1C[C@@H](Oc2cc(-c3ccccc3)nc3cc(OC)ccc23)CN1C(=O)[C@@H](NC(=O)OC(C)(C)C)C(C)(C)C)C(=O)NS(=O)(=O)C1(I)CC1 [Compound 39, {1-[2-[1-(1-Iodo-cyclopropanesulfonylaminocarbonyl)-2-vinyl-cyclopropylcarbamoyl]-4-(7-methoxy-2-phenyl-quinolin-4-yloxy)-pyrrolidine-1-carbonyl]-2,2-dimethyl-propyl}-carbamic acid tert-butyl ester] | < 50 nM | < 50 nM
C=CC1C[C@]1(NC(=O)[C@@H]1C[C@@H](Oc2cc(-c3ccccc3)nc3cc(OC)ccc23)CN1C(=O)[C@@H](NC(=O)OC(C)(C)C)C(C)(C)C)C(=O)NS(=O)(=O)C1(COC)CC1 (stereo partly drawn) [Compound 7, {1-[2-[1-(1-Methoxymethylcyclopropanesulfonylaminocarbonyl)-2-vinylcyclopropylcarbamoyl]-4-(7-methoxy-2-phenyl-quinolin-4--yloxy)pyrrolidine-1-carbonyl]-2,2-dimeth-ylpropyl}-carbamic acid tert-butyl ester] | < 50 nM | < 50 nM
C=C[C@@H]1C[C@]1(NC(=O)[C@@H]1C[C@@H](Oc2cc(-c3ccccc3)nc3cc(OC)ccc23)CN1C(=O)[C@@H](NC(=O)OC(C)(C)C)C(C)(C)C)C(=O)NS(=O)(=O)C1(CC#CCC)CC1 [Compound 45, (1-{4-(7-Methoxy-2-phenyl-quinolin-4-yloxy)-2-[1-(1-pent-2-ynyl-cyclopropanesulfonylaminocarbonyl)-2-vinyl-cyclopropylcarbamoyl]-pyrrolidine-1-carbonyl}-2,2-dimethyl-propyl)-carbamic acid tert-butyl ester] | < 50 nM | < 50 nM
COc1ccc2c(O[C@@H]3C[C@@H](C(=O)NC4(C(=O)NS(=O)(=O)C5(C(=O)c6ccccc6)CC5)CC4)N(C(=O)[C@@H](NC(=O)OC(C)(C)C)C(C)(C)C)C3)cc(-c3ccccc3)nc2c1 [Compound 73] |  | 500 to 5000 nM
C=C[C@@H]1C[C@]1(NC(=O)[C@@H]1C[C@@H](Oc2cc(-c3ccccc3)nc3cc(OC)ccc23)CN1C(=O)[C@@H](NC(=O)[C@@H]1COc2ccccc2O1)C(C)(C)C)C(=O)NS(=O)(=O)C1(Cc2ccccc2)CC1 [Compound 113] |  | 500 to 5000 nM
C=C[C@@H]1C[C@]1(NC(=O)[C@@H]1C[C@@H](Oc2cc(-c3ccccc3)nc3cc(OC)ccc23)CN1C(=O)[C@@H](NC(=O)O[C@@H]1C[C@H](C)CC[C@H]1C(C)C)C(C)(C)C)C(=O)NS(=O)(=O)C1(Cc2ccccc2)CC1 [Compound 109] |  | 500 to 5000 nM
